Laboratory results from patent publication US20080207614A1, “QUINAZOLINE DERIVATIVES FOR THE TREATMENT AND PREVENTION OF DIABETES AND OBESITY” (SK CHEMICALS CO., LTD., priority 2004, published 2008).

Test system: C2C12 muscle cells
Assay: Analysis of glucose absorption (2-deoxyglucose) in differentiated C2C12 muscle cells
Format: cell-based
Conditions: test materials 10 μM, times relative to control group
Description: C2C12 muscle cells were cultured in DMEM (Dulbecco's modified Eagle's medium) containing 10% bovine calf serum. When the cell density increased to about 85 to 90%, the culture medium was replaced with 1% bovine calf serum and cell differentiation was induced for 6 days. Completely differentiated cells were cultured for 3 hours with Krebs-Ringer buffer (KRB) containing 5 mM glucose. The test materials were added at a concentration of 10 μM. 30 minutes later, 0.2 μCi 2-deoxyglucose was added. KRB was removed 20 minutes later and the cells were washed for 3 times with cold PBS. The cells were lysed with 0.5N NaOH and counted using a radioactive counter.

SMILES	Glucose absorption
OCCOCCNc1nc(Cc2ccccc2)nc2ccccc12 [Compound 221, 2-[2-(2-Benzylquinazolino-4-ylamino)-ethoxy]-ethanol]	1.5
OCCCCCNc1nc(-c2ccccc2)nc2ccccc12 [Compound 85, 5-(2-Phenylquinazolino-4-ylamino)-pentane-1-ol]	1.0
OC(CNc1nc(-c2ccccc2)nc2ccccc12)c1ccccc1 (centres unmarked) [Compound 146, 1-Phenyl-2-(2-phenylquinazolino-4-ylamino)-ethanol]	2.3
c1ccc(-c2nc(NCc3cccc4ccccc34)c3ccccc3n2)cc1 [Compound 57, Naphthaleno-1-ylmethyl-(2-phenylquinazolino-4-yl)-amine]	1.0
c1ccc(Cc2nc(NCc3ccc4c(c3)OCO4)c3ccccc3n2)cc1 [Compound 218, Benzo[1,3]dioxol-5-ylmethyl-(2-benzylquinazolino-4-yl)-amine]	2.0
c1ccc(-c2nc(NCCc3ccccn3)c3ccccc3n2)cc1 [Compound 102, (2-Phenylquinazolino-4-yl)-(2-pyridino-2-ylethyl)-amine]	1.2
COc1cccc(CNc2nc(-c3ccccc3)nc3ccccc23)c1 [Compound 90, (3-Methoxybenzyl)-(2-phenylquinazolino-4-yl)-amine]	1.4
c1ccc(CNc2nc(-c3ccccc3)nc3ccccc23)cc1 [Compound 86, Benzyl-(2-phenylquinazolino-4-yl)-amine]	1.4
c1ccc2c(CNc3nc(-c4ccncc4)nc4ccccc34)cccc2c1 [Compound 253, Naphthaleno-1-ylmethyl-(2-pyridino-4-ylquinazolino-4-yl)-amine]	1.3
OCCOCCNc1nc(-c2ccncc2)nc2ccccc12 [Compound 257, 2-[2-(2-Pyridino-4-ylquinazolino-4-ylamino)-ethoxy]-ethanol]	1.4
c1ccc(CCNc2nc(-c3ccccc3)nc3ccccc23)cc1 [Compound 68, Phenethyl-(2-phenylquinazolino-4-yl)-amine]	1.3
c1ccc(CNc2nc(Cc3ccccc3)nc3ccccc23)cc1 [Compound 211, Benzyl-(2-benzylquinazolino-4-yl)-amine]	1.3
CCSc1nc(NCCCOC(C)C)c2ccccc2n1 [Compound 33, (2-Ethylsulfanylquinazolino-4-yl)-(3-isopropoxypropyl)-amine]	1.2
c1ccc2c(CNc3nc(C4CCCCC4)nc4ccccc34)cccc2c1 [Compound 205, (2-Cyclohexylquinazolino-4-yl)-naphthaleno-1-ylmethylamine]	1.3
CCSc1nc(NCCO)c2ccccc2n1 [Compound 47, 2-(2-Ethylsulfanylquinazolino-4-ylamino)-ethanol]	0.9
CC(C)OCCCNc1nc(-c2ccccc2)nc2ccccc12 [Compound 62, (3-Isopropoxypropyl)-(2-phenylquinazolino-4-yl)-amine]	1.1
COc1ccccc1CNc1nc(-c2ccccc2)nc2ccccc12 [Compound 91, (2-Methoxybenzyl)-(2-phenylquinazolino-4-yl)-amine]	1.2
c1ccc(CN2CCC(Nc3nc(-c4ccccc4)nc4ccccc34)CC2)cc1 [Compound 105, (1-Benzyl-piperidino-4-yl)-(2-phenylquinazolino-4-yl)-amine]	1.2
FC(F)(F)c1ccccc1CNc1nc(-c2ccccc2)nc2ccccc12 [Compound 98, (2-Phenylquinazolino-4-yl)-(2-trifluoromethylbenzyl)-amine]	1.2
CCC(C)Nc1nc(-c2ccccc2)nc2ccccc12 (centres unmarked) [Compound 96, sec-Butyl-(2-phenylquinazolino-4-yl)-amine]	1.3
CN1CCN(CCNc2nc(-c3ccccc3)nc3ccccc23)CC1 [Compound 158, [2-(4-Methylpiperazino-1-yl)-ethyl]-(2-phenylquinazolino-4-yl)-amine]	2.0
Clc1ccc(CNc2nc(-c3ccccc3)nc3ccccc23)cc1 [Compound 88, (4-Chlorobenzyl)-(2-phenylquinazolino-4-yl)-amine]	1.1
CC(C)Nc1nc(-c2ccccc2)nc2ccccc12 [Compound 60, Isopropyl-(2-phenylquinazolino-4-yl)-amine]	1.0
CC(C)c1ccc(Nc2nc(-c3ccccc3)nc3ccccc23)cc1 [Compound 72, (4-Isopropyl-phenyl)-(2-phenylquinazolino-4-yl)-amine]	1.1
c1coc(-c2nc(NCc3ccc4c(c3)OCO4)c3ccccc3n2)c1 [Compound 341, Benzo[1,3]dioxol-5-ylmethyl-(2-furano-2-ylquinazolino-4-yl)-amine]	0.8

SMILES	Glucose absorption
COc1ccc(CNc2nc(-c3ccccn3)nc3ccccc23)cc1 [Compound 225, (4-Methoxybenzyl)-(2-pyridino-2-ylquinazolino-4-yl)-amine]	1.3
COc1ccc(CCNc2nc(-c3ccccc3)nc3ccccc23)cc1 [Compound 124, [2-(4-Methoxyphenyl)-ethyl]-(2-phenylquinazolino-4-yl)-amine]	1.4
Fc1ccc(Nc2nc(-c3ccccc3)nc3ccccc23)cc1 [Compound 76, (4-Fluorophenyl)-(2-phenylquinazolino-4-yl)-amine]	1.0
Fc1cccc(CNc2nc(-c3ccc(Cl)cc3)nc3ccccc23)c1 [Compound 267, [2-(4-Chlorophenyl)-quinazolino-4-yl]-(3-fluorobenzyl)-amine]	1.0
CCCCCCCCCCCc1ccc(Nc2nc(-c3ccccc3)nc3ccccc23)cc1 [Compound 74, (2-Phenylquinazolino-4-yl)-(4-undecyl-phenyl)-amine]	0.9
COc1ccc(OC)c(CCNc2nc(-c3ccccc3)nc3ccccc23)c1 [Compound 122, [2-(2,5-Dimethoxyphenyl)-ethyl]-(2-phenylquinazolino-4-yl)-amine]	1.3
c1ccc(CNc2nc(-c3cccnc3)nc3ccccc23)cc1 [Compound 235, Benzyl-(2-pyridino-3-ylquinazolino-4-yl)-amine]	1.2
c1ccc(CCCCNc2nc(Cc3ccccc3)nc3ccccc23)cc1 [Compound 216, (2-Benzylquinazolino-4-yl)-(4-phenylbutyl)-amine]	2.6
Cc1cc(C)c(Nc2nc(-c3ccccc3)nc3ccccc23)c(C)c1 [Compound 78, (2-Phenylquinazolino-4-yl)-(2,4,6-trimethyl-phenyl)-amine]	1.4
Cc1ccccc1Nc1nc(-c2ccccc2)nc2ccccc12 [Compound 71, (2-Phenylquinazolino-4-yl)-o-tollylamine]	1.0
Cc1nc(NCCOCCO)c2ccccc2n1 [Compound 173, 2-[2-(2-Methylquinazolino-4-ylamino)-ethoxy]-ethanol]	1.3
COc1ccc(CNc2nc(Cc3ccccc3)nc3ccccc23)c(OC)c1 [Compound 333, (2-Benzylquinazolino-4-yl)-(2,4-dimethoxybenzyl)-amine]	1.2
Clc1ccc(-c2nc(NCc3ccc4c(c3)OCO4)c3ccccc3n2)cc1 [Compound 266, Benzo[1,3]dioxol-5-ylmethyl-[2-(4-chlorophenyl)-quinazolino-4-yl]-amine]	1.1
COc1cccc(OC)c1CNc1nc(-c2ccccc2)nc2ccccc12 [Compound 154, (2,6-Dimethoxybenzyl)-(2-phenylquinazolino-4-yl)-amine]	2.5
c1ccc(CCNc2nc(Cc3ccccc3)nc3ccccc23)cc1 [Compound 215, (2-Benzylquinazolino-4-yl)-phenethylamine]	2.2
CC(C)(C)c1nc(NCc2cccc(F)c2)c2ccccc2n1 [Compound 195, (2-tert-Butylquinazolino-4-yl)-(3-fluorobenzyl)-amine]	1.2
COc1cccc(CNc2nc(-c3cccnc3)nc3ccccc23)c1 [Compound 236, (3-Methoxybenzyl)-(2-pyridino-3-ylquinazolino-4-yl)-amine]	1.2
CCSc1nc(NC(C)c2ccccc2)c2ccccc2n1 (centres unmarked) [Compound 23, (2-Ethylsulfanylquinazolino-4-yl)-(1-phenylethyl)-amine]	0.8
FC(F)(F)c1cccc(CCNc2nc(-c3ccccc3)nc3ccccc23)c1 [Compound 64, (2-Phenylquinazolino-4-yl)-[2-(3-trifluoromethyl-phenyl)-ethyl]-amine]	1.2
COc1ccc(CNc2nc(C(C)(C)C)nc3ccccc23)cc1 [Compound 189, (2-tert-Butylquinazolino-4-yl)-(4-methoxybenzyl)-amine]	1.3
c1ccc(CCCCNc2nc(-c3cccnc3)nc3ccccc23)cc1 [Compound 240, (4-Phenylbutyl)-(2-pyridino-3-ylquinazolino-4-yl)-amine]	1.0
Fc1cccc(CNc2nc(Cc3ccccc3)nc3ccccc23)c1 [Compound 219, (2-Benzylquinazolino-4-yl)-(3-fluorobenzyl)-amine]	2.3
OCCOCCNc1nc(-c2ccccn2)nc2ccccc12 [Compound 233, 2-[2-(2-Pyridino-2-ylquinazolino-4-ylamino)-ethoxy]-ethanol]	1.4
FC(F)(F)c1cccc(CNc2nc(Cc3ccccc3)nc3ccccc23)c1 [Compound 214, (2-Benzylquinazolino-4-yl)-(3-trifluoromethylbenzyl)-amine]	2.0
CCN1CCCC1CNc1nc(-c2ccccc2)nc2ccccc12 (centres unmarked) [Compound 117, (1-Ethyl-pyrrolidino-2-ylmethyl)-(2-phenylquinazolino-4-yl)-amine]	1.4
